# Test results from patent US20230072854A1, “PARAXANTHINE-BASED BIOACTIVE COMPOSITION AND METHOD OF USE THEREOF” (Ingenious Ingredients, LP, priority 2020, published 2023).
# Experiments:
# volunteers [1] = assay: Go/No-Go test, double blind crossover vs placebo; format: in vivo, human; details: 200 mg; for Response Time Average: in ms (unit assumed)
# Excerpt: (§1) In a double blind, randomized, crossover, and repeated measures manner, 13 volunteers (10 male, 3 female, average age 24±5 years, average body weight 72.91±19.30 kg, average height 169.96±11.84 cm, average BMI 24.80±3.71 kg/m^2) participated in this study. Participants limited ingestion of caffeine and other stimulants to normal use for 48-hours, fasted for 8-hours and reported to the lab and completed 4 different cognitive function tests to assess short-term attention and inhibitory control (Go-No Go Test), sustained attention (Vigilance Task Test), working memory (Sternberg Task Test) and cognitive flexibility (Berg-Washington Card Sorting Test). Once completed, the participants ingested either a placebo or 200 mg of paraxanthine (WGI, TX, USA) with 8 ounces of water. Participants repeated cognitive function tests 1, 2, 3, 4, 5, and 6 hours after ingestion of the supplement. After one-week participants repeated the experiment while consuming the other treatment.
# (§2) Data were analyzed by a General Linear Model multivariate and univariate analyses with repeated measures using body weight as a covariate. Data are expressed as means±standard deviations for the placebo (PLA) and Paraxanthine (PrX). Greenhouse-Geisser univariate p-levels are listed for time (T), weight×time (W×T) and group×time (G×T) interactions effects. Pairwise comparison is indicated by the following superscripts: †=[…] difference from baseline value; *=[…] difference from baseline; a=[…] difference between groups; b=[…] difference between groups. Eta2 vaules of […] are considered small, […] medium, and >0.14 are considered large.
# A test of sustained attention and response control (i.e., attention/inhibition). Lower response times represents better ability to pay attention and inhibitory control.
# Toxicity, LD50 = details: in vivo
# volunteers [2] = assay: Psychomotor vigilance task test, double blind crossover vs placebo; format: in vivo, human; details: 200 mg
# Excerpt: as §1, §2
# The psychomotor vigilance task test is a sustained attention, reaction timed task that measures the speed with which participants respond to a visual stimulus. Lower Reaction time, especially maintained throughout this many tests represents better ability to sustain attention.
compound,measurement,setting,value
"Cn1c(=O)[nH]c2ncn(C)c2c1=O [paraxanthine, 1,7-dimethylxanthine]",Round 1 Condition P mean response time (FIG. 6),volunteers [1],no significant differences over time or between treatments
same,"percentage of correct answers, in words",volunteers [1],maintained percentage of correct answers
same,Correct Response Mean Accuracy (%),volunteers [1]; Mean (SEM) over all hours,92.5%
same,Round 1: Condition P Mean - Response Time (Millisecond),volunteers [1]; Mean (SEM) over all hours,394.55 ± 18.07 Millisecond
same,Round 2: Condition P Mean - Response Time (Millisecond),volunteers [1]; Mean (SEM) over all hours,356.55 ± 18.00 Millisecond
same,Round 2: Condition R Mean - Response Time (Millisecond),volunteers [1]; Mean (SEM) over all hours,396.32 ± 20.27 Millisecond
same,Response Time Average,volunteers [1]; Mean (SEM) over all hours,374.94 ± 17.45
same,Correct Response Mean Accuracy (%),"volunteers [1]; Mean (SEM) over all hours, listed as PX",92.5 ± 1.3%
same,response times to correctly respond compared to PLA,volunteers [1]; acute,faster response times
same,Correct Response Mean Accuracy (%),volunteers [1]; hour 0 (before ingestion),93.0 ± 2.9%
same,Round 1: Condition P Mean - Response Time (Millisecond),volunteers [1]; hour 0 (before ingestion),392.29 ± 44.29 Millisecond
same,Round 1: Condition R Mean - Response Time (Millisecond),volunteers [1]; hour 0 (before ingestion),344.30 ± 70.08 Millisecond
same,Round 2: Condition P Mean - Response Time (Millisecond),volunteers [1]; hour 0 (before ingestion),345.19 ± 37.11 Millisecond
same,Round 2: Condition R Mean - Response Time (Millisecond),volunteers [1]; hour 0 (before ingestion),401.46 ± 52.36 Millisecond
same,Response Time Average,volunteers [1]; hour 0 (before ingestion),373.88 ± 43.64
same,Correct Response Mean Accuracy (%),volunteers [1]; hour 1 after ingestion,93.7 ± 2.3%
same,Round 1: Condition P Mean - Response Time (Millisecond),volunteers [1]; hour 1 after ingestion,387.51 ± 38.34 Millisecond
same,Round 1: Condition R Mean - Response Time (Millisecond),volunteers [1]; hour 1 after ingestion,336.24 ± 73.85 Millisecond
same,Round 2: Condition P Mean - Response Time (Millisecond),volunteers [1]; hour 1 after ingestion,346.39 ± 47.07 Millisecond
same,Round 2: Condition R Mean - Response Time (Millisecond),volunteers [1]; hour 1 after ingestion,390.30 ± 41.57 Millisecond
same,Response Time Average,volunteers [1]; hour 1 after ingestion,366.68 ± 36.59
same,Correct Response Mean Accuracy (%),volunteers [1]; hour 2 after ingestion,92.9 ± 3.6%
same,Round 1: Condition P Mean - Response Time (Millisecond),volunteers [1]; hour 2 after ingestion,392.71 ± 38.09 Millisecond
same,Round 1: Condition R Mean - Response Time (Millisecond),volunteers [1]; hour 2 after ingestion,347.17 ± 59.16 Millisecond
same,Round 2: Condition P Mean - Response Time (Millisecond),volunteers [1]; hour 2 after ingestion,352.72 ± 46.18 Millisecond
same,Round 2: Condition R Mean - Response Time (Millisecond),volunteers [1]; hour 2 after ingestion,389.31 ± 39.82 Millisecond
same,Response Time Average,volunteers [1]; hour 2 after ingestion,371.09 ± 30.25
same,Correct Response Mean Accuracy (%),volunteers [1]; hour 3 after ingestion,91.7%
same,Round 1: Condition P Mean - Response Time (Millisecond),volunteers [1]; hour 3 after ingestion,402.18 Millisecond
same,Round 1: Condition R Mean - Response Time (Millisecond),volunteers [1]; hour 3 after ingestion,360.11 Millisecond
same,Round 2: Condition P Mean - Response Time (Millisecond),volunteers [1]; hour 3 after ingestion,372.09 Millisecond
same,Round 2: Condition R Mean - Response Time (Millisecond),volunteers [1]; hour 3 after ingestion,401.47 Millisecond
same,Response Time Average,volunteers [1]; hour 3 after ingestion,384.07
same,Correct Response Mean Accuracy (%),volunteers [1]; hour 4 after ingestion,91.3%
same,Round 1: Condition P Mean - Response Time (Millisecond),volunteers [1]; hour 4 after ingestion,387.65 Millisecond
same,Round 1: Condition R Mean - Response Time (Millisecond),volunteers [1]; hour 4 after ingestion,350.94 Millisecond
same,Round 2: Condition P Mean - Response Time (Millisecond),volunteers [1]; hour 4 after ingestion,362.02 Millisecond
same,Round 2: Condition R Mean - Response Time (Millisecond),volunteers [1]; hour 4 after ingestion,399.45 Millisecond
same,Response Time Average,volunteers [1]; hour 4 after ingestion,375.03
same,Correct Response Mean Accuracy (%),volunteers [1]; hour 5 after ingestion,93.1%
same,Round 1: Condition P Mean - Response Time (Millisecond),volunteers [1]; hour 5 after ingestion,406.70 Millisecond
same,Round 1: Condition R Mean - Response Time (Millisecond),volunteers [1]; hour 5 after ingestion,365.08 Millisecond
same,Round 2: Condition P Mean - Response Time (Millisecond),volunteers [1]; hour 5 after ingestion,359.18 Millisecond
same,Round 2: Condition R Mean - Response Time (Millisecond),volunteers [1]; hour 5 after ingestion,405.58 Millisecond
same,Response Time Average,volunteers [1]; hour 5 after ingestion,383.60
same,Correct Response Mean Accuracy (%),volunteers [1]; hour 6 after ingestion,91.6 ± 4.4%
same,Round 1: Condition P Mean - Response Time (Millisecond),volunteers [1]; hour 6 after ingestion,393.51 ± 53.02 Millisecond
same,Round 1: Condition R Mean - Response Time (Millisecond),volunteers [1]; hour 6 after ingestion,352.14 ± 56.48 Millisecond
same,Round 2: Condition P Mean - Response Time (Millisecond),volunteers [1]; hour 6 after ingestion,357.05 ± 99.19 Millisecond
same,Round 2: Condition R Mean - Response Time (Millisecond),volunteers [1]; hour 6 after ingestion,387.41 ± 53.47 Millisecond
same,Response Time Average,volunteers [1]; hour 6 after ingestion,371.27 ± 53.76
same,average response time (FIG. 10),volunteers [1]; round 1+round 2,maintained mean response time over time
same,Round 1 Condition R mean response time (FIG. 7),"volunteers [1]; round 1, vs PLA",better maintained mean response time over time compared to PLA
same,Round 2 Condition P mean response time (FIG. 8),"volunteers [1]; round 2, vs PLA",better maintained mean response time over time compared to PLA
same,Round 2 Condition R mean response time (FIG. 9),"volunteers [1]; round 2, vs PLA",non-significantly better maintained mean response time over time compared to PLA
same,change of mean response times,volunteers [1]; vs baseline,−0.3%
same,decrease of correct responses in comparison to baseline,volunteers [1]; vs baseline,0.5%
same,Mean Correct Responses higher compared to placebo,volunteers [1]; vs placebo,1.1%
same,LD50,"Toxicity, LD50",1600 mg/kg
same,Trial #2 reaction time (FIG. 11),volunteers [2],maintained reaction time
same,Trial #10 reaction time (FIG. 12),volunteers [2],no significant time or between treatment differences
same,effect on average reaction times in the vigilance task test,volunteers [2],no effect
same,Reaction Time (milliseconds) Average,volunteers [2]; Mean (SEM) over all hours,"2,550 milliseconds"
same,Reaction Time (milliseconds) Trial #2,volunteers [2]; Mean (SEM) over all hours,"2,659 milliseconds"
same,Reaction Time (milliseconds) Trial #10,volunteers [2]; Mean (SEM) over all hours,"2,639 milliseconds"
same,Reaction Time (milliseconds) Trial #20,volunteers [2]; Mean (SEM) over all hours,"2,590 milliseconds"
same,Reaction Time (milliseconds) Average,volunteers [2]; hour 0 (before ingestion),"2,546 milliseconds"
same,Reaction Time (milliseconds) Trial #2,volunteers [2]; hour 0 (before ingestion),"2,601 milliseconds"
same,Reaction Time (milliseconds) Trial #10,volunteers [2]; hour 0 (before ingestion),"2,607 milliseconds"
same,Reaction Time (milliseconds) Trial #20,volunteers [2]; hour 0 (before ingestion),"2,680 milliseconds"
same,Reaction Time (milliseconds) Average,volunteers [2]; hour 1 after ingestion,"2,552 milliseconds"
same,Reaction Time (milliseconds) Trial #2,volunteers [2]; hour 1 after ingestion,"2,602 milliseconds"
same,Reaction Time (milliseconds) Trial #10,volunteers [2]; hour 1 after ingestion,"2,418 milliseconds"
same,Reaction Time (milliseconds) Trial #20,volunteers [2]; hour 1 after ingestion,"2,458 milliseconds"
same,Reaction Time (milliseconds) Average,volunteers [2]; hour 2 after ingestion,"2,508 milliseconds"
same,Reaction Time (milliseconds) Trial #2,volunteers [2]; hour 2 after ingestion,"3,005 milliseconds"
same,Reaction Time (milliseconds) Trial #10,volunteers [2]; hour 2 after ingestion,"2,651 milliseconds"
same,Reaction Time (milliseconds) Trial #20,volunteers [2]; hour 2 after ingestion,"2,220 milliseconds"
same,Reaction Time (milliseconds) Average,volunteers [2]; hour 3 after ingestion,"2,559 milliseconds"
same,Reaction Time (milliseconds) Trial #2,volunteers [2]; hour 3 after ingestion,"2,591 milliseconds"
same,Reaction Time (milliseconds) Trial #10,volunteers [2]; hour 3 after ingestion,"2,788 milliseconds"
same,Reaction Time (milliseconds) Trial #20,volunteers [2]; hour 3 after ingestion,"2,445 milliseconds"
same,Reaction Time (milliseconds) Average,volunteers [2]; hour 4 after ingestion,"2,538 milliseconds"
same,Reaction Time (milliseconds) Trial #2,volunteers [2]; hour 4 after ingestion,"3,005 milliseconds"
same,Reaction Time (milliseconds) Trial #10,volunteers [2]; hour 4 after ingestion,"2,412 milliseconds"
same,Reaction Time (milliseconds) Trial #20,volunteers [2]; hour 4 after ingestion,"2,792 milliseconds"
same,Reaction Time (milliseconds) Average,volunteers [2]; hour 5 after ingestion,"2,570 milliseconds"
same,Reaction Time (milliseconds) Trial #2,volunteers [2]; hour 5 after ingestion,"2,441 milliseconds"
same,Reaction Time (milliseconds) Trial #10,volunteers [2]; hour 5 after ingestion,"2,783 milliseconds"
same,Reaction Time (milliseconds) Trial #20,volunteers [2]; hour 5 after ingestion,"2,544 milliseconds"
same,Reaction Time (milliseconds) Average,volunteers [2]; hour 6 after ingestion,"2,577 milliseconds"
same,Reaction Time (milliseconds) Trial #2,volunteers [2]; hour 6 after ingestion,"2,360 milliseconds"
same,Reaction Time (milliseconds) Trial #10,volunteers [2]; hour 6 after ingestion,"2,813 milliseconds"
same,Reaction Time (milliseconds) Trial #20,volunteers [2]; hour 6 after ingestion,"3,005 milliseconds"
